± gives the expanded uncertainty stated by the source.
Assay: activity coefficient (dimensionless); of the first substance listed, at infinite dilution; xn = mol fraction of the nth substance listed
Settings: Liquid, Chromatography, x1 = 0

CCCO [propan-1-ol] + CCCCCCCC[N+](C)(C)C.O=S(=O)([N-]S(=O)(=O)C(F)(F)F)C(F)(F)F
activity coefficient (322.85 K): 1.7 ± 0.07
activity coefficient (332.65 K): 1.55 ± 0.06
activity coefficient (343.15 K): 1.37 ± 0.05

CC(C)CC(C)(C)C [2,2,4-trimethylpentane] + CCCCCCCC[N+](C)(C)C.O=S(=O)([N-]S(=O)(=O)C(F)(F)F)C(F)(F)F
activity coefficient (322.85 K): 8.1 ± 0.37
activity coefficient (332.65 K): 7.66 ± 0.35
activity coefficient (343.15 K): 7.14 ± 0.33

C=CCCCC [hex-1-ene] + CCCCCCCC[N+](C)(C)C.O=S(=O)([N-]S(=O)(=O)C(F)(F)F)C(F)(F)F
activity coefficient (322.85 K): 3.99 ± 0.18
activity coefficient (332.65 K): 3.8 ± 0.17
activity coefficient (343.15 K): 3.6 ± 0.16

CCCCCCCCCCC [undecane] + CCCCCCCCCC[N+](C)(C)C.O=S(=O)([N-]S(=O)(=O)C(F)(F)F)C(F)(F)F
activity coefficient (322.85 K): 12.4 ± 0.57
activity coefficient (332.65 K): 12.2 ± 0.56
activity coefficient (343.15 K): 11.4 ± 0.52

C#CCCCCC [1-heptyne] + CCCCCCCC[N+](CCCCCCCC)(CCCCCCCC)CCCCCCCC.O=S(=O)([N-]S(=O)(=O)C(F)(F)F)C(F)(F)F
activity coefficient (322.85 K): 0.84 ± 0.03
activity coefficient (332.65 K): 0.86 ± 0.03
activity coefficient (343.15 K): 0.87 ± 0.03

CCCCCC [hexane] + CCCCCCCC[N+](CCCCCCCC)(CCCCCCCC)CCCCCCCC.O=S(=O)([N-]S(=O)(=O)C(F)(F)F)C(F)(F)F
activity coefficient (322.85 K): 1.3 ± 0.04
activity coefficient (332.65 K): 1.29 ± 0.04
activity coefficient (343.15 K): 1.28 ± 0.04

ClCCl [dichloromethane] + CCCC[N+](C)(CCCC)CCCC.O=S(=O)([N-]S(=O)(=O)C(F)(F)F)C(F)(F)F
activity coefficient (322.85 K): 0.66 ± 0.03
activity coefficient (332.65 K): 0.69 ± 0.03
activity coefficient (343.15 K): 0.7 ± 0.03

C[N+](=O)[O-] [nitromethane] + CCCCCCCC[N+](CCCCCCCC)(CCCCCCCC)CCCCCCCC.O=S(=O)([N-]S(=O)(=O)C(F)(F)F)C(F)(F)F
activity coefficient (322.85 K): 0.63 ± 0.03
activity coefficient (332.65 K): 0.61 ± 0.03
activity coefficient (343.15 K): 0.59 ± 0.03

CC(C)OC(C)C [diisopropyl ether] + CCCC[N+](C)(CCCC)CCCC.O=S(=O)([N-]S(=O)(=O)C(F)(F)F)C(F)(F)F
activity coefficient (322.85 K): 3.31 ± 0.15
activity coefficient (332.65 K): 3.35 ± 0.15
activity coefficient (343.15 K): 3.35 ± 0.15

CCC(=O)CC [pentan-3-one] + CCCCCCCC[N+](CCCCCCCC)(CCCCCCCC)CCCCCCCC.O=S(=O)([N-]S(=O)(=O)C(F)(F)F)C(F)(F)F
activity coefficient (322.85 K): 0.32 ± 0.04
activity coefficient (332.65 K): 0.33 ± 0.04
activity coefficient (343.15 K): 0.35 ± 0.04

ClC(Cl)(Cl)Cl [tetrachloromethane] + CCCC[N+](C)(CCCC)CCCC.O=S(=O)([N-]S(=O)(=O)C(F)(F)F)C(F)(F)F
activity coefficient (322.85 K): 2.11 ± 0.1
activity coefficient (332.65 K): 2.11 ± 0.1
activity coefficient (343.15 K): 2.07 ± 0.09

CC(C)CO [2-methyl-1-propanol] + CCCCCCCC[N+](C)(C)C.O=S(=O)([N-]S(=O)(=O)C(F)(F)F)C(F)(F)F
activity coefficient (322.85 K): 1.87 ± 0.08
activity coefficient (332.65 K): 1.7 ± 0.07
activity coefficient (343.15 K): 1.51 ± 0.06

ClC(Cl)Cl [trichloromethane] + CCCCCCCCCC[N+](C)(C)C.O=S(=O)([N-]S(=O)(=O)C(F)(F)F)C(F)(F)F
activity coefficient (322.85 K): 0.65 ± 0.03
activity coefficient (332.65 K): 0.68 ± 0.03
activity coefficient (343.15 K): 0.68 ± 0.03

ClC(Cl)Cl [trichloromethane] + CCCCCCCC[N+](C)(C)C.O=S(=O)([N-]S(=O)(=O)C(F)(F)F)C(F)(F)F
activity coefficient (322.85 K): 0.63 ± 0.03
activity coefficient (332.65 K): 0.65 ± 0.03
activity coefficient (343.15 K): 0.66 ± 0.03

C#CCCCC [1-hexyne] + CCCCCCCC[N+](CCCCCCCC)(CCCCCCCC)CCCCCCCC.O=S(=O)([N-]S(=O)(=O)C(F)(F)F)C(F)(F)F
activity coefficient (322.85 K): 0.75 ± 0.03
activity coefficient (332.65 K): 0.76 ± 0.03
activity coefficient (343.15 K): 0.76 ± 0.03

c1ccsc1 [thiophene] + CCCCCCCC[N+](C)(C)C.O=S(=O)([N-]S(=O)(=O)C(F)(F)F)C(F)(F)F
activity coefficient (322.85 K): 0.69 ± 0.03
activity coefficient (332.65 K): 0.69 ± 0.03
activity coefficient (343.15 K): 0.69 ± 0.03

CO [methanol] + CCCCCCCC[N+](CCCCCCCC)(CCCCCCCC)CCCCCCCC.O=S(=O)([N-]S(=O)(=O)C(F)(F)F)C(F)(F)F
activity coefficient (322.85 K): 0.65 ± 0.03
activity coefficient (332.65 K): 0.76 ± 0.03
activity coefficient (343.15 K): 0.82 ± 0.03

C1CCCCC1 [cyclohexane] + CCCCCCCC[N+](CCCCCCCC)(CCCCCCCC)CCCCCCCC.O=S(=O)([N-]S(=O)(=O)C(F)(F)F)C(F)(F)F
activity coefficient (322.85 K): 0.95 ± 0.03
activity coefficient (332.65 K): 0.94 ± 0.03
activity coefficient (343.15 K): 0.92 ± 0.03

CC1CCCCC1 [methylcyclohexane] + CCCCCCCC[N+](C)(C)C.O=S(=O)([N-]S(=O)(=O)C(F)(F)F)C(F)(F)F
activity coefficient (322.85 K): 5.23 ± 0.24
activity coefficient (332.65 K): 4.93 ± 0.23
activity coefficient (343.15 K): 4.6 ± 0.21

CCCCCC [hexane] + CCCCCCCCCC[N+](C)(C)C.O=S(=O)([N-]S(=O)(=O)C(F)(F)F)C(F)(F)F
activity coefficient (322.85 K): 4.2 ± 0.19
activity coefficient (332.65 K): 4.1 ± 0.18
activity coefficient (343.15 K): 3.93 ± 0.17

Cc1cccc(C)c1 [1,3-dimethylbenzene] + CCCCCCCC[N+](CCCCCCCC)(CCCCCCCC)CCCCCCCC.O=S(=O)([N-]S(=O)(=O)C(F)(F)F)C(F)(F)F
activity coefficient (332.65 K): 0.6 ± 0.03
activity coefficient (343.15 K): 0.62 ± 0.03

CCCCCCCCCC [decane] + CCCCCCCC[N+](C)(C)C.O=S(=O)([N-]S(=O)(=O)C(F)(F)F)C(F)(F)F
activity coefficient (322.85 K): 19.3 ± 0.89
activity coefficient (332.65 K): 17.9 ± 0.83
activity coefficient (343.15 K): 16.2 ± 0.75
